Measured values from patent US9770430B2, “Desferrioxamine-metal complexes for the treatment of immune-related disorders” (priority 2009, dated 2017).

Legend:
ovalbumin-induced asthma = assay: Ovalbumin-induced asthma, treatment of chronic asthma model (BAL cells, lung histology); assay type: in vivo, BALB/c mice; settings: Mean ± SE
Experimental: • Twelve-week-old Balb/c mice were administered 10 μg (100 μl) ovalbumin (OVA) dissolved with 3 mg Al(OH)3 in 0.9% saline intraperitoneally (i.p.) on days 0, 7 and 14, and 10 μg (50 μl) OVA intranasally (i.n.) on days 20, 23, 25, 27, 29, 31, 34, 36, 37, 41, 43 and 45. For intranasal administration, mice were anesthetized with inhaled N-flurane and instilled with OVA i.n. with a micropipette. • Three-week-old BALB/c mice were sensitized (×3) with intra-peritoneal (i/p) injection (100 μl OVA solution, containing 0.3 mg OVA and 6.7 mg Al(OH)3, in 1 ml PBS) on days 0, 7 and 14. On days 14, 15, 17, 21 and 23 the mice were further sensitized with intranasal sprinklings (50 μl, each) of OVA in PBS solution containing 2 mg/ml OVA, as following: mice were anesthetized with inhaled N-flurane and instilled with OVA intra-nasally using a micropipette. Twenty-four hours after the last administration of OVA, the mice were sacrificed. Methacholine Challenge and Collection of Histologic Sections and Biochemical Samples
Either Zn-DFO, Ga-DFO, Zn-DFO and Ga-DFO 1:1 combination (herein metal complexes) or saline were administered as follows: on days −5, −1, 7 and 14, 1 mg/kg body weight metal complexes or saline were administered intraperitoneally (i.p.). On days 0, 6, 8, 13 and 15, 0.3 mg/kg body weight metal complexes or saline were administered i.p. On days 20, 23, 25, 27, 29, 31, 34, 36, 37, 41, 43 and 45, 0.3 mg/kg body weight metal complexes or saline were administered intranasally (i.n.). Twenty-four hours after the last sensitization, mice were anesthetized with urethane and the lungs were lavaged 4 times with 0.5 ml sterile PBS. Animals in the “control” group (non-asthmatic—saline treated, but not sensitized) (n=6) received saline injections and instillations, using the same regime as the asthmatic and treated animals. Animals of the “asthmatic” group (sensitized and saline-treated, rather than complex-treated) (n=6) received saline instead of the respective complex, under the same regime.
For the treatment of chronic asthma model, a similar experimental protocol was followed, with the following modifications: 1 mg/kg body weight metal complexes or saline were administered i.p. on day 0 (instead of days −5 and −1) and a further 0.3 mg/kg complexes or saline were administered on day 1. In this model, the effects of the complexes were investigated further by histological examination of lung sections stained with either haematoxylin-eosine or PAS/AB (periodic acid-Schiff/alcan blue).
To estimate the anti-asthmatic effect of the complexes the following parameters were measured: the concentration of ferritin in the lungs, the presence of inflammatory cells infiltration into the lungs, and the amounts of macrophages, eosinophils, lymphocytes and neutrophils in bronchoalveolar lavages (BALs).

lens proteins = assay: Lens proteins of high energy diet fed sand rats (total protein, Trx, TrxR, actin, Msr activity, ferritin); assay type: in vivo, sand rat (Psammomis obesus)
Experimental: Ferritin concentration was quantified using an indirect ‘sandwich’ ELISA assay in accordance with a procedure developed previously in our laboratory. Briefly, ELISA 96-well micro plates were pre-coated with goat anti-human L-ferritin antibody. Rabbit anti-human H-ferritin was used as the secondary antibody. Plates were treated with goat anti-rabbit IgG conjugated with β-galactosidase. Chlorophenol Red-β-D-Galactopyranoside was then added and the plates analyzed using a microplate reader with a test (570 nm) and reference (630 nm) filters.
Quantification of the activity of methionine-sulfoxide reductase (Msr) was carried out by incubation the tissue lysates with dabsyl-methionine sulfoxide for 30 min at 37° C., followed by analysis of the reduced product (dabsyl methionine) by HPLC-spectrophotometric detection at 436 nm Assay: total volume 100 μl, including 200 μM Dabsyl-met (O) (as a substrate). The reaction mixture contained also 20 mM DTT, buffer, ˜100 μg protein. The incubation (reaction) was stopped by adding 100 μl of acetonitrile, spinning down, and discarding the protein fraction. The chromatography was run on a 150 mm 3 μm C-18 column, using a gradient (A to B). A=19 g of sodium acetate, pH 6.0 plus 0.5 ml of triethylamine, in one liter of solution; B=acetonitrile (pure). The substrate, dabsyl-Met (0) was prepared as described [Moskovitz, J. et al. (2001) Proc Natl Acad Sci USA, 98 (23): p. 12920-5; Moskowitz et al. (1997) Proc Natl Acad Sci USA, 94 (18): p. 9585-93].
Nineteen sand rats were divided into three groups. Group I (n=4) received a standard diet and was used as a control. Groups II (n=7) and III (n=8) received a high energy diet, leading to diabetes development. Group III was treated with 2.5 mg Zn-DFO i.p. per kg body weight three times a week, while Group II was injected with saline according to the same pattern. After the blood glucose and body weight monitoring for 63 days, glucose tolerance test was performed and blood level of 2,3-DHBA and catechols was also measured. As previously done, cataract formation was tested as well. The retina and lens were collected for biochemical analysis of the concentration of ferritin, thioredoxin-1 (Trx) and thioredoxin reductase-1 (TrxR), total lens protein and methionine sulfoxide reductase (Msr) activity. The concentration of actin, Trx and TrxR were measured by Western Blotting, and the activity of Msr was analyzed by HPLC as described.

[1] = tested on: high energy diet-induced Type II diabetes; assay: Sand rat high energy diet Type II diabetes model, body weight, blood glucose, glucose tolerance, cataract (Example 7); assay type: in vivo, sand rat (Psammomis obesus)
[2] = pH limit of the complex solution during preparation (loss of biological activities); assay type: physicochemical; settings: pH above 6.1; solution reacts with air-containing CO2
[3] = Western Blotting, diabetes-induced decrease

Q: With CC(=O)N(O)CCCCCNC(=O)CCC(=O)N([O-])CCCCCNC(=O)CCC(=O)N([O-])CCCCCN.[Zn+2] [Zn-DFO, Zinc-desferrioxamine] as the compound, how does the “Eosinophils in BAL fluid” value (ovalbumin-induced asthma) read?
A: Its value is 0.3 ± 0.05^# 10^4 cells/ml.

Q: What about the “Lymphocytes in BAL fluid” value (ovalbumin-induced asthma) of the same compound?
A: The value was 0.2 ± 0.05^# 10^4 cells/ml.

Q: And the “Macrophages in BAL fluid” value (ovalbumin-induced asthma)?
A: The value was 3.0 ± 0.2^# 10^4 cells/ml.

Q: What about the “Neutrophils in BAL fluid” value (ovalbumin-induced asthma) of the same compound?
A: Its value is 0.2 ± 0.05^# 10^4 cells/ml.

Q: And the “Total WBC in BAL fluid” value (ovalbumin-induced asthma)?
A: Its value is 4.0 ± 0.3^# 10^4 cells/ml.

Q: And the “lens Msr activity” value (lens proteins; HPLC, diabetes-induced decrease)?
A: The value was “partial, but statistically significant restoration”.

Q: And the “lens concentration of Trx” value (lens proteins; [3])?
A: Its value is “partial, but statistically significant restoration”.

Q: And the “lens concentration of TrxR” value (lens proteins; [3])?
A: Its value is “partial, but statistically significant restoration”.

Q: And the “lens concentration of actin” value (lens proteins; [3])?
A: Its value is “partial, but statistically significant restoration”.

Q: What about the “total lens protein concentration (Bradford assay)” value (lens proteins; diabetes-induced decrease) of the same compound?
A: Its value is “partly prevented this decrease”.

Q: What about the “decrease in lens ferritin level” value (lens proteins; versus diabetic animals) of the same compound?
A: Its value is 3.8 fold.

Q: What about the blood glucose value ([1]; day 28, high energy diet, 2.5 mg/kg i.p. three times a week) of the same compound?
A: The blood glucose value was 200 mg/dL.

Q: What about the body weight gain ([1]; high energy diet, 2.5 mg/kg i.p. three times a week, 63 days) of the same compound?
A: The body weight gain was “gained weight moderately”.

Q: What about the blood glucose value ([1]; toward the end of experiment, high energy diet, 2.5 mg/kg i.p. three times a week) of the same compound?
A: The blood glucose value was 110 mg/dL.

Q: And the “animals that did not develop cataract” value ([1]; treated group (Group III))?
A: Its value is “four”.

Q: And the “animals with grade 1-2 cataract in both eyes” value ([1]; treated group (Group III))?
A: The value was “Two”.

Q: And the “animals with severe (grade 3) cataract” value ([1]; treated group (Group III))?
A: Its value is “one”.

Q: What about the “glucose tolerance test, integration of total glucose levels” value ([1]; versus Group I (standard diet)) of the same compound?
A: Its value is “insignificantly higher value than Group I”.

Q: And the “effect of higher pH on the Zn-DFO solution” value [2]?
A: The value was “marked loss of the biological activities”.
